In general, AC50 refers to the midpoint of the concentration-response curve, whichever way the signal moves.

SMILES strings stand for the structures.

The target in the first assay is T1, human PAH with the R408W mutation (Homo sapiens, UniProt P00439, R408W).
T1 construct: expressed in transfected cells
T1 sequence (P00439 1-452 R408W): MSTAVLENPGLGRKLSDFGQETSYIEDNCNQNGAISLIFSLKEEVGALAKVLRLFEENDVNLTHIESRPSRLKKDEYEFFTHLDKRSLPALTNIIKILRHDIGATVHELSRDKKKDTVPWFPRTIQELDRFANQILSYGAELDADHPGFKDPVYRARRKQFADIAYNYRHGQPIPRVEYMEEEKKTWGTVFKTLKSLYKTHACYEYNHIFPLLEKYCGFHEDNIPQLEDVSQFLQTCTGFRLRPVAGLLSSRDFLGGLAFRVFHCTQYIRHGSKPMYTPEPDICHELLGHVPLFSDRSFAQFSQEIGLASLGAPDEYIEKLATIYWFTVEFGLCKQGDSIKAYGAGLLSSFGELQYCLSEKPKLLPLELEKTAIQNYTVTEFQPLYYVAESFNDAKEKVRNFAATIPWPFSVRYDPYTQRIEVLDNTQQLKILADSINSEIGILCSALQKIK
Kind of assay: Cell Based Phenylalanine Flux Assay.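 Also: after compound treatment, cells received sepiapterin plus isotope-labelled Phenylalanine for 4 hours, then labelled Tyrosine in the medium was quantified, 10-point 2-fold dilution series run in duplicate.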 To be noted: A375 cells expressing R408W PAH; 24 hrs with compound, then 20 µM sepiapterin and 800 µM 13C9,15N-Phenylalanine for 4 hours; 13C-Tyrosine by LC-MS; average where tested multiple times; read-out: AC50.
In the case of `O=C(c1nnc(-c2cn[nH]c2)o1)N1CCc2[nH]cnc2C1c1cc2ccccn2n1` (stereo not drawn), the AC50 fell in the range of 1000 to 5000 nM.
On the same count and under the same terms, in the case of `O=C(c1nnc(-c2ccc(C(F)(F)F)cn2)o1)N1CCc2[nH]cnc2C1c1cc2ccccn2n1` (stereo not drawn) it was greater than 5000 nM.
The same measure, in the same setting: to `Cc1cccc2cc(C3c4nc[nH]c4CCN3c3ncc(N)cn3)nn12` (stereo not drawn) belongs 1000 to 5000 nM; to `O=C(c1nnc(-c2ncccn2)o1)N1CCc2[nH]cnc2C1c1cc2cccc(F)n2n1` (stereo not drawn), 1000 to 5000 nM; to `Cc1ccn2nc([C@@H]3c4nc[nH]c4CCN3C(=O)c3ccnn3C(F)F)cc2c1` (single isomer, unassigned), 1000 to 5000 nM.
The same measure, in the same setting: to `O=C(c1nnc(-c2cc[nH]n2)o1)N1CCc2[nH]cnc2C1c1cc2ccccn2n1` (stereo not drawn) belongs greater than 5000 nM.
In the case of `Cc1nnc(CCC(=O)N2CCc3[nH]cnc3C2c2cc3ccccn3n2)s1` (stereo not drawn), the half-maximal activity concentration (AC50) is greater than 5000 nM.
Same read-out and setting: to `FC(F)c1cccn2nc(C3c4nc[nH]c4CCN3c3nnc(-c4ncccn4)o3)cc12` (stereo not drawn) belongs 1000 to 5000 nM.
Still for that read-out and setting: in the case of `c1cncc(-c2nnc(N3CCc4[nH]cnc4C3c3cc4c(C5CC5)cccn4n3)o2)c1` (stereo not drawn) it was greater than 5000 nM; in that of `Cc1nnc(C(=O)N2CCc3[nH]cnc3C2c2cc3ccccn3n2)s1` (stereo not drawn), 1000 to 5000 nM.
Still for that read-out and setting: in the case of `FC(F)c1cccn2nc([C@H]3c4nc[nH]c4CCN3c3nc4ccccc4o3)cc12` (single isomer, unassigned) it was greater than 5000 nM; in that of `O=C(c1cnn(CC(F)(F)F)c1Cl)N1CCc2[nH]cnc2C1c1cc2ccccn2n1` (stereo not drawn), 1000 to 5000 nM; in that of `COCc1ccc2c(C(=O)N3CCc4[nH]cnc4C3c3cc4cccc(C(F)(F)F)n4n3)cnn2c1` (stereo not drawn), 1000 to 5000 nM.
For the compound `O=C(c1nnc(N2CCOCC2)o1)N1CCc2[nH]cnc2C1c1cc2c(F)cccn2n1` (stereo not drawn), the concentration at half-maximal activity (AC50) was in the range of 1000 to 5000 nM.

The same assay, now with this note: A375 cells expressing human PAH R408W; 24 hrs compound incubation; 13C-Tyrosine by LC-MS; average where tested multiple times; read-out: AC50.
Consider `O=C(c1cnn(CC(F)(F)F)c1C(F)F)N1CCc2[nH]cnc2[C@H]1c1cc2ccccn2n1` [Example 2368, (S)-(5-(difluoromethyl)-1-(2,2,2-trifluoroethyl)-1H-pyrazol-4-yl)(4-(pyrazolo[1,5-a]pyridin-2-yl)-6,7-dihydro-1H-imidazo[4,5-c]pyridin-5(4H)-yl)methanone], for which the half-maximal activity concentration (AC50) was 1000 to 5000 nM.
On the same count and under the same terms, to `Cn1cc(-c2nc(C3CC3)c(C(=O)N3CCc4[nH]cnc4[C@@H]3c3cc4c(F)cccn4n3)o2)cn1` [Example 2072, (R)-(4-cyclopropyl-2-(1-methyl-1H-pyrazol-4-yl)oxazol-5-yl)(4-(4-fluoropyrazolo[1,5-a]pyridin-2-yl)-1,4,6,7-tetrahydro-5H-imidazo[4,5-c]pyridin-5-yl)methanone] belongs greater than 5000 nM; to `Cn1cc(-c2nnc(C(=O)N3CCc4[nH]cnc4[C@H]3c3cc4c(C5CC5)cccn4n3)o2)cn1` [Example 1876, (S)-(4-(4-cyclopropylpyrazolo[1,5-a]pyridin-2-yl)-1,4,6,7-tetrahydro-5H-imidazo[4,5-c]pyridin-5-yl)(5-(1-methyl-1H-pyrazol-4-yl)-1,3,4-oxadiazol-2-yl)methanone], 500 to 1000 nM; to `O=C(c1cnc(-c2cnccn2)o1)N1CCc2[nH]cnc2[C@H]1c1cc2c(C(F)(F)F)cccn2n1` [Example 2244, (S)-(2-(pyrazin-2-yl)oxazol-5-yl)(4-(4-(trifluoromethyl)pyrazolo[1,5-a]pyridin-2-yl)-1,4,6,7-tetrahydro-5H-imidazo[4,5-c]pyridin-5-yl)methanone], 500 to 1000 nM.
Still for that read-out and setting: to `CC(F)(F)c1nnc(N2CCc3[nH]cnc3[C@H]2c2cc3cccc(C(F)F)n3n2)o1` [Example 2523, (S)-2-(1,1-difluoroethyl)-5-(4-(7-(difluoromethyl)pyrazolo[1,5-a]pyridin-2-yl)-1,4,6,7-tetrahydro-5H-imidazo[4,5-c]pyridin-5-yl)-1,3,4-oxadiazole] belongs 1000 to 5000 nM; to `O=C(c1nnc(-c2ccccn2)o1)N1CCc2[nH]cnc2[C@@H]1c1cc2c(C3CC3)cccn2n1` [Example 1896, (R)-(4-(4-cyclopropylpyrazolo[1,5-a]pyridin-2-yl)-1,4,6,7-tetrahydro-5H-imidazo[4,5-c]pyridin-5-yl)(5-(pyridin-2-yl)-1,3,4-oxadiazol-2-yl)methanone], greater than 5000 nM; to `Nc1cnc(N2CCc3[nH]cnc3[C@H]2c2cc3c(C(F)F)cccn3n2)nc1` [Example 1852, (S)-2-(4-(4-(difluoromethyl)pyrazolo[1,5-a]pyridin-2-yl)-1,4,6,7-tetrahydro-5H-imidazo[4,5-c]pyridin-5-yl)pyrimidin-5-amine], 500 to 1000 nM.

Staying with this assay, now noted: A375 cells expressing human R408W PAH; 24 hrs compound incubation; 13C-Tyrosine by LC-MS; average where tested multiple times; read-out: AC50.
Consider `Cc1cccc2cc([C@@H]3c4nc[nH]c4CCN3C(=O)c3ocnc3C(F)F)nn12` [Example 792, (S)-(4-(difluoromethyl)oxazol-5-yl)(4-(7-methylpyrazolo[1,5-a]pyridin-2-yl)-6,7-dihydro-1H-imidazo[4,5-c]pyridin-5(4H)-yl)methanone], for which the AC50 is less than 500 nM.
As to `Cn1ccc(-c2nnc(C(=O)N3CCc4[nH]cnc4[C@@H]3c3cc4c(Cl)cccn4n3)o2)n1` [Example 719, (R)-(4-(4-chloropyrazolo[1,5-a]pyridin-2-yl)-6,7-dihydro-1H-imidazo[4,5-c]pyridin-5(4H)-yl)(5-(1-methyl-1H-pyrazol-3-yl)-1,3,4-oxadiazol-2-yl)methanone], the AC50 is greater than 5000 nM.
Regarding `O=C(c1nnc(-c2cnn(C(F)F)c2)o1)N1CCc2[nH]cnc2[C@@H]1c1cc2cccc(F)n2n1` [Example 985, (R)-(5-(1-(difluoromethyl)-1H-pyrazol-4-yl)-1,3,4-oxadiazol-2-yl)(4-(7-fluoropyrazolo[1,5-a]pyridin-2-yl)-6,7-dihydro-1H-imidazo[4,5-c]pyridin-5(4H)-yl)methanone], the half-maximal activity concentration (AC50) lay within 1000 to 5000 nM.
Take `Cc1cc(-c2nnc(C(=O)N3CCc4[nH]cnc4[C@H]3c3cc4cccc(C(F)F)n4n3)o2)nn1C` [Example 1537, (S)-(4-(7-(difluoromethyl)pyrazolo[1,5-a]pyridin-2-yl)-6,7-dihydro-1H-imidazo[4,5-c]pyridin-5(4H)-yl)(5-(1,5-dimethyl-1H-pyrazol-3-yl)-1,3,4-oxadiazol-2-yl)methanone]: the half-maximal activity concentration (AC50) lay in the range of 500 to 1000 nM.
On the same count and under the same terms, to `O=C(c1nnc(-c2cc(C(F)(F)F)ccn2)o1)N1CCc2[nH]cnc2[C@H]1c1cc2ccccn2n1` [Example 669, (S)-(4-(pyrazolo[1,5-a]pyridin-2-yl)-6,7-dihydro-1H-imidazo[4,5-c]pyridin-5(4H)-yl)(5-(4-(trifluoromethyl)pyridin-2-yl)-1,3,4-oxadiazol-2-yl)methanone] belongs less than 500 nM; to `Cc1nc(C(=O)N2CCc3[nH]cnc3[C@H]2c2cc3c(C(F)(F)F)cccn3n2)n(C)n1` [Example 1082, (S)-(1,3-dimethyl-1H-1,2,4-triazol-5-yl)(4-(4-(trifluoromethyl)pyrazolo[1,5-a]pyridin-2-yl)-6,7-dihydro-1H-imidazo[4,5-c]pyridin-5(4H)-yl)methanone], less than 500 nM; to `Cc1c(-c2nnc(C(=O)N3CCc4[nH]cnc4[C@@H]3c3cc4c(F)cccn4n3)o2)cnn1C` [Example 955, (R)-(5-(1,5-dimethyl-1H-pyrazol-4-yl)-1,3,4-oxadiazol-2-yl)(4-(4-fluoropyrazolo[1,5-a]pyridin-2-yl)-6,7-dihydro-1H-imidazo[4,5-c]pyridin-5(4H)-yl)methanone], greater than 5000 nM.
Regarding `O=C(c1nnc(-c2cccnc2)o1)N1CCc2[nH]cnc2[C@@H]1c1cc2c(F)cccn2n1` [Example 897, (R)-(4-(4-fluoropyrazolo[1,5-a]pyridin-2-yl)-6,7-dihydro-1H-imidazo[4,5-c]pyridin-5(4H)-yl)(5-(pyridin-3-yl)-1,3,4-oxadiazol-2-yl)methanone], the concentration at half-maximal activity (AC50) is greater than 5000 nM.
Still for that read-out and setting: to `O=C(c1nnc(C2CCC2)o1)N1CCc2[nH]cnc2[C@H]1c1cc2cccc(F)n2n1` [Example 1575, (S)-(5-cyclobutyl-1,3,4-oxadiazol-2-yl)(4-(7-fluoropyrazolo[1,5-a]pyridin-2-yl)-6,7-dihydro-1H-imidazo[4,5-c]pyridin-5(4H)-yl)methanone] belongs less than 500 nM; to `COc1cccn2nc([C@H]3c4nc[nH]c4CCN3C(=O)c3nnc(C(C)(C)C)o3)cc12` [Example 1182, (R)-(5-(tert-butyl)-1,3,4-oxadiazol-2-yl)(4-(4-methoxypyrazolo[1,5-a]pyridin-2-yl)-6,7-dihydro-1H-imidazo[4,5-c]pyridin-5(4H)-yl)methanone], 1000 to 5000 nM.
Regarding `O=C(c1ccnn1C(F)F)N1CCc2[nH]cnc2[C@@H]1c1cc2c(F)cccn2n1` [Example 777, (R)-(1-(difluoromethyl)-1H-pyrazol-5-yl)(4-(4-fluoropyrazolo[1,5-a]pyridin-2-yl)-6,7-dihydro-1H-imidazo[4,5-c]pyridin-5(4H)-yl)methanone], the concentration at half-maximal activity (AC50) was greater than 5000 nM.
The same measure, in the same setting: to `Cc1ncccc1-c1nnc(C(=O)N2CCc3[nH]cnc3[C@@H]2c2cc3cccc(C(F)F)n3n2)o1` [Example 1501, (R)-(4-(7-(difluoromethyl)pyrazolo[1,5-a]pyridin-2-yl)-6,7-dihydro-1H-imidazo[4,5-c]pyridin-5(4H)-yl)(5-(2-methylpyridin-3-yl)-1,3,4-oxadiazol-2-yl)methanone] belongs greater than 5000 nM.

The record behind these values is patent publication US20230365592A1 (Agios Pharmaceuticals, Inc., priority 2022, published 2023).
